Read-outs that look alike come from different tables or passages of the source. Peptide text beside a SMILES is read from it.
What was measured:
[1] = biological target: T1, Human QC (Homo sapiens, UniProt Q16769); experiment: QC inhibition test, spectrophotometric, 96-well microplate; type: biochemical; parameters: corresponding to the coding region of human QC (Ala33-Leu361) was re-amplified and inserted into a pET-43.1a expression vector; Nus fusion (pET-43.1a construct) or thioredoxin fusion (pET-32a construct) (N, cleaved yes); (His)6 (pET-43.1a construct: N- and C-terminal sites; pET-32a construct: 5'-end, upstream of the Factor Xa site); made in house; host or cells: E. coli BL21 (DE3); conditions: inhibitor 140 μM, substrate H-Gln-Gln-OH 0.55 mM, human QC 28.8 nM, preincubation 5 to 10 min; for remaining activity at 140 µM: read-out: QC activity (% of control)
Protocol: Reactions were started by the addition of QC (0.04 to 2.5 μg), and the activity was monitored by recording the decrease of NADH absorbance at 340 nm.
For an inhibition test, the reaction composition was the same as described above, except for the addition of the inhibitor compound. Prior to the spectrophotometric analysis on a 96-well microplate, the enzyme was incubated with the inhibitor for 5 to 10 min.
Target sequence in this assay (Q16769 33-361): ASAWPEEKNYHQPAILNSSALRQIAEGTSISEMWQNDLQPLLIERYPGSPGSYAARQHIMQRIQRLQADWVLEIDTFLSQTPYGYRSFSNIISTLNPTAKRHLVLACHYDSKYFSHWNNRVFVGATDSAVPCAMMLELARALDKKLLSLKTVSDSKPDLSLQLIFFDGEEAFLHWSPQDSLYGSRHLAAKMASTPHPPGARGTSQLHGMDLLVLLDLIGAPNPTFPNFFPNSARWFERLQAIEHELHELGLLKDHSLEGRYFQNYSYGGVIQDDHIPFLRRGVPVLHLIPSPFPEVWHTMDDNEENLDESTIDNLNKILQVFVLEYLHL

[2] = biological target: T1, Human QC; parameters: host or cells: Pichia pastoris; conditions: substrate of human QC expressed in Drosophila S2 cell; reported by Booth et al.; cited from earlier work
Target sequence in this assay (Q16769 29-361): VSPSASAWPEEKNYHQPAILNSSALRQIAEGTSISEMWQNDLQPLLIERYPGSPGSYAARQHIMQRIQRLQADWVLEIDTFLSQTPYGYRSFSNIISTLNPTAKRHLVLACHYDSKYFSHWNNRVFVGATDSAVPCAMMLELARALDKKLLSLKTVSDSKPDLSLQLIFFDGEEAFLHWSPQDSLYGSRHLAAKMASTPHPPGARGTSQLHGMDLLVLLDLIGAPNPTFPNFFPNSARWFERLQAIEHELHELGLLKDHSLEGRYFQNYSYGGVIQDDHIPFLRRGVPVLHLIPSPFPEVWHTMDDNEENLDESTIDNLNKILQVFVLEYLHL

[3] = biological target: T1, Human QC; parameters: host or cells: Pichia pastoris; conditions: substrate of human QC expressed in Pichia pastoris cell; reported by Schilling et al.; cited from earlier work
Target sequence in this assay (Q16769 29-361): as above

[4] = biological target: T1, Human QC; experiment: Spectrophotometric QC activity assay (glutamate dehydrogenase coupled), human QC expressed in E. coli; type: biochemical; parameters: corresponding to the coding region of human QC (Ala33-Leu361) was re-amplified and inserted into a pET-43.1a expression vector; Nus fusion (pET-43.1a construct) or thioredoxin fusion (pET-32a construct) (N, cleaved yes); (His)6 (pET-43.1a construct: N- and C-terminal sites; pET-32a construct: 5'-end, upstream of the Factor Xa site); made in house; host or cells: E. coli BL21 (DE3); conditions: substrate of human QC expressed in Escherichia coli cell, mean ± SD (n = 2)
Protocol: For the spectrophotometric method, the 500 μl assay solutions consisted of 15 units glutamate dehydrogenase, 12 mM α-ketoglutarate, 0.6 mM NADH (a reduced form of NAD (nicotinamide adenine dinucleotide)) and varying concentrations of synthetic substrate in 50 mM Tris-HCl, pH 8.0. Reactions were started by the addition of QC (0.04 to 2.5 μg), and the activity was monitored by recording the decrease of NADH absorbance at 340 nm.
The Km and kcat values determined for the recombinant protein of the invention were very similar to the human QC expressed in Drosophila S2 cells, as evident in Table 1.
Target sequence in this assay (Q16769 33-361): as the sequence (Q16769 33-361) above

[5] = biological target: T1, Human QC; experiment: QC activity analysis by reverse-phase HPLC on [Gln1]-TRH; type: biochemical; parameters: corresponding to the coding region of human QC (Ala33-Leu361) was re-amplified and inserted into a pET-43.1a expression vector; Nus fusion (pET-43.1a construct) or thioredoxin fusion (pET-32a construct) (N, cleaved yes); (His)6 (pET-43.1a construct: N- and C-terminal sites; pET-32a construct: 5'-end, upstream of the Factor Xa site); made in house; host or cells: E. coli BL21 (DE3); conditions: 50 mM Tris-HCl
Protocol: QC activity was analyzed based on reverse-phase HPLC and spectrophotometric measurement. […] A reaction without addition of human QC was provided as a control in the assay. Subsequently, a 20 μl aliquot of the mixture was subjected to HPLC analysis on a Waters liquid chromatograph using a C18 column (Waters, Milford, Mass.). The bound materials were eluted by a three-step linear gradient of methanol containing 0.1% trifluoroacetic acid (TFA). The eluates were detected at 214 nm and identified by mass spectrometry and N-terminal sequencing.
The synthetic [Gln^1]-TRH (Gln-His-Pro), one of the putative physiological substrates of human QC, was used to analyze the QC activity of the recombinant protein based on the HPLC elution profile of the peptide.
Target sequence in this assay (Q16769 33-361): as above

## c1ccc(Cn2ccnc2)cc1 [1-benzylimidazole]
[1]
  remaining activity at 140 µM: 41.5%

## Nc1n[nH]c(N)n1 [3,5-diamino-1,2,4-triazole]
[1]
  remaining activity at 140 µM: 89.9%

## Nc1nc[nH]n1 [3-amino-1,2,4-triazole]
[1]
  remaining activity at 140 µM: 84.5%

## O=c1[nH][nH]c(=O)n1-c1ccccc1 [4-phenyl-1,2,4-triazoleine-3,5-dione]
[1]
  remaining activity at 140 µM: 78.2%

## CSc1nnn[nH]1 [5-(methylthio)-1H-tetrazole]
[1]
  remaining activity at 140 µM: 89.1%

## NC(=O)CC[C@H](NC(=O)[C@@H](N)CCC(N)=O)C(=O)O [Gln-Gln, H-Gln-Gln-OH] (H-Gln-Gln-OH)
[2]
  Km: 700 ± 400 µM
  kcat: 10.0 s⁻¹
[3]
  Km: 100 µM
  kcat: 20.7 ± 0.2 s⁻¹

## CC(C)(C)OC(=O)[C@@H](N)CCC(N)=O [Gln-t-butyl ester, H-Gln-t-butyl ester]
[2]
  Km: 6700 ± 2000 µM
  kcat: 16.0 s⁻¹
[3]
  Km: 1200 ± 100 µM
  kcat: 6.7 ± 0.2 s⁻¹
[4]
  kcat: 20.9 ± 2.1 s⁻¹
[4]; 50 mM Tris-HCl, pH 8.0
  Km: 4100 ± 600 µM

## CCOC(=O)Cc1nnn[nH]1 [ethyl 1H-tetrazole-5-acetate]
[1]
  remaining activity at 140 µM: 90.6%

## c1ccc(N=c2[n-][n+](-c3ccccc3)cn2-c2ccccc2)cc1 [nitron]
[1]
  QC activity (% of control): 61.4 % of control

## [Gln^1]-TRH (Gln-His-Pro)
[5]; 5 days, pH 8.0, at 25° C., no enzyme
  Turnover in the absence of human QC: less than 20%
[5]; within 20 minutes, 0.6 μM human QC, 14.8 mM substrate, pH 8.0, 25° C.
  Conversion into [pGlu1]-TRH by human QC: almost completely converted
